Source: ChEMBL document CHEMBL4715733, “Nitrobenzofurazan derivatives of N'-hydroxyamidines as potent inhibitors of indoleamine-2,3-dioxygenase 1” (Eur J Med Chem, 2016)

Assays:
[1] = target: T1, Indoleamine 2,3-dioxygenase 1 (Homo sapiens, UniProt P14902); experiment: Inhibition of recombinant human IDO1 assessed as N-formylkynurenine formation using L-tryptophan as substrate measured after 1 hr by UV-vis spectrophotometric analysis
[2] = target: Tryptophan 2,3-dioxygenase (Homo sapiens, UniProt P48775); experiment: Inhibition of recombinant human TDO assessed as N-formylkynurenine formation using L-tryptophan as substrate measured after 1 hrs by UV-vis spectrophotometric analysis
Sequence of Tryptophan 2,3-dioxygenase (P48775 whole entry): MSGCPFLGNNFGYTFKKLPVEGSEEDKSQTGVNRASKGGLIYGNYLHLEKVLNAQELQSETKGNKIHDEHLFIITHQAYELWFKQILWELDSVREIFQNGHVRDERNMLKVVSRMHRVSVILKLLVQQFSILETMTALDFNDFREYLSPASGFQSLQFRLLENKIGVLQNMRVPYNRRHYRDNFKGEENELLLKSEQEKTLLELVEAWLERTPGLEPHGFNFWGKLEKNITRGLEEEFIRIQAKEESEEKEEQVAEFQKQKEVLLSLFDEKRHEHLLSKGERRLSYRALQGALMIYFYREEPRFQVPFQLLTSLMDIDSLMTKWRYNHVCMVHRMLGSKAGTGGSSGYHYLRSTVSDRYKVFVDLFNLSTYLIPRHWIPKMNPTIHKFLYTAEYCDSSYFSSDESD

[3] = target: T1, Indoleamine 2,3-dioxygenase 1; experiment: Inhibition of human IDO1 in IFN-gamma-induced human MDA-MB-231 cells assessed as N-formylkynurenine formation using L-tryptophan as substrate pretreated for 4 hrs followed substrate addition measured after 5 hrs by UV-vis spectrophotometric analysis; format: cell-based
[4] = target: T1, Indoleamine 2,3-dioxygenase 1; experiment: Inhibition of recombinant human IDO1 assessed as N-formylkynurenine formation using L-tryptophan as substrate measured after 1.5 hrs by HPLC analysis

T1 sequence (P14902 whole entry): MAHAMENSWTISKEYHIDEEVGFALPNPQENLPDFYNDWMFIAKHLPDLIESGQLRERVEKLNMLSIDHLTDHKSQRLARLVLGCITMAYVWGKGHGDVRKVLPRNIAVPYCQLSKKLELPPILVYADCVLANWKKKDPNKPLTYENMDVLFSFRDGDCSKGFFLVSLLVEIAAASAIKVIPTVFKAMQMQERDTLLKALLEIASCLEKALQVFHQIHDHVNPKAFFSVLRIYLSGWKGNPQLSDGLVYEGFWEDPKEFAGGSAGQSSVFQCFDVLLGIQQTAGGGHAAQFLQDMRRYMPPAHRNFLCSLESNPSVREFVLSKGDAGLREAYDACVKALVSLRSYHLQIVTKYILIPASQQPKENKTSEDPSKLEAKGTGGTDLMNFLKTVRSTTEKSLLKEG

In the case of `O=[N+]([O-])c1ccc(N/C(Cc2ccc(F)cc2F)=N\O)c2nonc12`, the IC50 [1] is reported as 160 nM and the IC50 [2] is reported as 19 µM.

In the case of `O=[N+]([O-])c1ccc(N/C(=N\O)c2ccccc2F)c2nonc12`, the IC50 [1] is reported as 63 nM, the IC50 [3] is reported as 131 nM and the IC50 [2] is reported as 110 µM. It also gave an IC50 [4] of 56 nM.

Work on `O=[N+]([O-])c1ccc(N/C(Cc2ccc(F)cc2)=N\O)c2nonc12` yielded an IC50 [1] of 98 nM, an IC50 [3] of 151 nM and an IC50 [2] of 65 µM. The IC50 [4] was 73 nM.

`O=[N+]([O-])c1ccc(N/C(Cc2ccccc2F)=N\O)c2nonc12` showed an IC50 [1] of 102 nM, an IC50 [3] of 131 nM and an IC50 [2] of 30 µM. For the same compound, the IC50 [4] was 75 nM.

Compound `O=[N+]([O-])c1ccc(N/C(=N\O)c2ccc(Br)cc2)c2nonc12` has an IC50 [1] of 117 nM and an IC50 [2] of 50 µM.

For `O=[N+]([O-])c1ccc(N/C(Cc2ccc(Cl)cc2)=N\O)c2nonc12`, the IC50 [1] was 127 nM, the IC50 [3] was 110 nM and the IC50 [2] was 51 µM. The IC50 [4] was 78 nM.

With `O=[N+]([O-])c1ccc(N/C(=N\O)c2cccc(Cl)c2)c2nonc12` the IC50 [1] was 184 nM.

Compound `O=[N+]([O-])c1ccc(N/C(=N\O)c2ccccc2)c2nonc12` has an IC50 [1] of 268 nM.

In the case of `O=[N+]([O-])c1ccc(N/C(Cc2cccc(Cl)c2)=N\O)c2nonc12`, the IC50 [1] is reported as 199 nM.

For `O=[N+]([O-])c1ccc(N/C(=N\O)c2ccc(F)c(Br)c2)c2nonc12`, the IC50 [1] was 92 nM, the IC50 [3] was 107 nM and the IC50 [2] was 47 µM. The IC50 [4] was 106 nM.

`O=[N+]([O-])c1ccc(N/C(=N\O)c2cccc(F)c2)c2nonc12` showed an IC50 [1] of 75 nM, an IC50 [3] of 245 nM and an IC50 [2] of 45 µM. The IC50 [4] was 84 nM.

With `O=[N+]([O-])c1ccc(N/C(Cc2cccc(F)c2)=N\O)c2nonc12` the IC50 [1] was 131 nM.

For `O=[N+]([O-])c1ccc(N/C(=N\O)c2ccccc2Cl)c2nonc12`, the IC50 [1] was 135 nM.

For `COc1ccc(C/C(=N/O)Nc2ccc([N+](=O)[O-])c3nonc23)cc1`, the IC50 [1] was 128 nM.

In the case of `O=[N+]([O-])c1ccc(N/C(=N\O)c2ccc(Cl)cc2)c2nonc12`, the IC50 [1] is reported as 113 nM and the IC50 [2] is reported as 40 µM.

With `O=[N+]([O-])c1ccc(N/C(Cc2ccccc2)=N\O)c2nonc12` the IC50 [1] was 307 nM.

With `O=[N+]([O-])c1ccc(N/C(Cc2ccc(Cl)c(Cl)c2)=N\O)c2nonc12` the IC50 [1] was 39 nM, the IC50 [3] was 71 nM and the IC50 [2] was 32 µM. For the same compound, the IC50 [4] was 53 nM.

`O=[N+]([O-])c1ccc(N/C(Cc2ccc(F)c(F)c2)=N\O)c2nonc12` showed an IC50 [1] of 59 nM, an IC50 [3] of 50 nM and an IC50 [2] of 94 µM. The IC50 [4] was 49 nM.

With `Cc1cccc(/C(=N/O)Nc2ccc([N+](=O)[O-])c3nonc23)c1` the IC50 [1] was 163 nM.

In the case of `O=[N+]([O-])c1ccc(N/C(=N\O)c2ccccc2Br)c2nonc12`, the IC50 [1] is reported as 80 nM, the IC50 [3] is reported as 66 nM and the IC50 [2] is reported as 25 µM. The IC50 [4] was 64 nM.

Work on `Cc1ccc(/C(=N/O)Nc2ccc([N+](=O)[O-])c3nonc23)cc1` yielded an IC50 [1] of 204 nM.

`O=[N+]([O-])c1ccc(N/C(=N\O)c2ccc(F)c(Cl)c2)c2nonc12` was tested, and the IC50 [1] was 158 nM.

`O=[N+]([O-])c1ccc(N/C(=N\O)c2cccc(Br)c2)c2nonc12` was tested, and the IC50 [1] was 105 nM and the IC50 [2] was 20 µM.

Compound `O=[N+]([O-])c1ccc(N/C(=N\O)c2ccc(F)cc2)c2nonc12` has an IC50 [1] of 100 nM, an IC50 [3] of 125 nM and an IC50 [2] of 21 µM. For the same compound, the IC50 [4] was 60 nM.

With `O=[N+]([O-])c1ccc(N/C(Cc2ccc(Br)cc2)=N\O)c2nonc12` the IC50 [1] was 112 nM and the IC50 [2] was 43 µM.

Compound `Nc1nonc1C(=NO)Nc1ccc(F)c(Cl)c1` has an IC50 [2] of 24 µM.
